The supplement of paper PMC10307832

Columns and labels:
Assay in all cases: relative viability (nuclei count vs DMSO), 5 days (fraction); higher = more cells survive
17-AAG = compound: C=CCNC1=C2C[C@@H](C)C[C@H](OC)[C@H](O)[C@@H](C)/C=C(\C)[C@H](OC(N)=O)[C@@H](OC)/C=C\C=C(/C)C(=O)NC(=CC1=O)C2=O [17-AAG]
How it was run: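 Nuclei counted with MetaXpress define viability as the ratio of treated to vehicle wells, given as a median across plates. The lung cancer cell lines were in 1536-well plates, pinned with five √10-spaced library-drug doses and imaged at 4× after 5 days and Hoechst staining. Plates passed with control CV below 25% and at least one doubling.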

17-AAG + Trametinib = compound: C=CCNC1=C2C[C@@H](C)C[C@H](OC)[C@H](O)[C@@H](C)/C=C(\C)[C@H](OC(N)=O)[C@@H](OC)/C=C\C=C(/C)C(=O)NC(=CC1=O)C2=O [17-AAG] + CC(=O)Nc1cccc(-n2c(=O)n(C3CC3)c(=O)c3c(Nc4ccc(I)cc4F)n(C)c(=O)c(C)c32)c1 [Trametinib] (partner 0.02 µM)
How it was run: (§1)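 Dosing by pin tool came one day after lung cancer cell lines were seeded in 1536-well plates, using either one drug or a fixed anchor-drug dose plus five library-drug doses (not always all listed) in √10 steps. After 5 days, nuclei were counted on 4× images. Relative viability is treated-well nuclei count divided by vehicle-well nuclei count, and values are medians of duplicate plates.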

17-AAG + OSI-027 = compound: C=CCNC1=C2C[C@@H](C)C[C@H](OC)[C@H](O)[C@@H](C)/C=C(\C)[C@H](OC(N)=O)[C@@H](OC)/C=C\C=C(/C)C(=O)NC(=CC1=O)C2=O [17-AAG] + COc1cccc2cc(-c3nc([C@H]4CC[C@H](C(=O)O)CC4)n4ncnc(N)c34)[nH]c12 [OSI-027] (partner 0.5 µM)
How it was run: as §1

17-AAG + Phenformin = compound: C=CCNC1=C2C[C@@H](C)C[C@H](OC)[C@H](O)[C@@H](C)/C=C(\C)[C@H](OC(N)=O)[C@@H](OC)/C=C\C=C(/C)C(=O)NC(=CC1=O)C2=O [17-AAG] + N=C(N)NC(=N)NCCc1ccccc1 [Phenformin] (partner 250 µM)
How it was run: as §1

Row | Cell Line | relative viability (17-AAG; 0.00128 µM) | relative viability (17-AAG; 0.004048 µM) | relative viability (17-AAG; 0.0128 µM) | relative viability (17-AAG; 0.04048 µM) | relative viability (17-AAG; 0.128 µM) | relative viability (17-AAG + Trametinib; first compound 0.00128 µM) | relative viability (17-AAG + Trametinib; first compound 0.004048 µM) | relative viability (17-AAG + Trametinib; first compound 0.0128 µM) | relative viability (17-AAG + Trametinib; first compound 0.04048 µM) | relative viability (17-AAG + Trametinib; first compound 0.128 µM) | relative viability (17-AAG + OSI-027; first compound 0.00128 µM) | relative viability (17-AAG + OSI-027; first compound 0.004048 µM) | relative viability (17-AAG + OSI-027; first compound 0.0128 µM) | relative viability (17-AAG + OSI-027; first compound 0.04048 µM) | relative viability (17-AAG + OSI-027; first compound 0.128 µM) | relative viability (17-AAG + Phenformin; first compound 0.00128 µM) | relative viability (17-AAG + Phenformin; first compound 0.004048 µM) | relative viability (17-AAG + Phenformin; first compound 0.0128 µM) | relative viability (17-AAG + Phenformin; first compound 0.04048 µM) | relative viability (17-AAG + Phenformin; first compound 0.128 µM)
1 | NCI-H1650 | 0.89 | 0.477 | 0.197 | 0.2 | 0.144 | 0.657 | 0.252 | 0.143 | 0.126 | 0.114 | 0.483 | 0.226 | 0.139 | 0.189 | 0.176 | 0.294 | 0.15 | 0.146 | 0.147 | 0.157
2 | NCI-H1651 | 0.955 | 0.964 | 0.945 | 0.681 | 0.335 | 0.781 | 0.855 | 0.838 | 0.77 | 0.604 | 0.749 | 0.685 | 0.683 | 0.395 | 0.143 | 0.335 | 0.548 | 0.242 | 0.151 | 0.107
3 | NCI-H1666 | 1.01 | 0.913 | 0.723 | 0.47 | 0.364 | 0.858 | 0.826 | 0.639 | 0.575 | 0.481 | 0.875 | 0.782 | 0.52 | 0.395 | 0.335 | 0.547 | 0.56 | 0.432 | 0.316 | 0.329
4 | NCI-H1734 | 0.98 | 1.02 | 0.839 | 0.284 | 0.15 | 0.759 | 0.633 | 0.576 | 0.245 | 0.15 | 0.602 | 0.709 | 0.415 | 0.263 | 0.144 | 0.371 | 0.368 | 0.305 | 0.142 | 0.118
5 | NCI-H1755 | 1.01 | 0.943 | 0.897 | 0.433 | 0.238 | 0.808 | 0.716 | 0.705 | 0.741 | 0.23 | 0.773 | 0.69 | 0.602 | 0.197 | 0.114 | 0.622 | 0.57 | 0.578 | 0.254 | 0.0941
6 | NCI-H1792 | 0.888 | 0.772 | 0.347 | 0.165 | 0.181 | 0.483 | 0.337 | 0.216 | 0.0858 | 0.056 | 0.691 | 0.765 | 0.619 | 0.574 | 0.273 | 0.338 | 0.216 | 0.066 | 0.0797 | 0.0405
7 | NCI-H1793 | 0.967 | 0.842 | 0.282 | 0.186 | 0.135 | 0.36 | 0.318 | 0.273 | 0.18 | 0.142 | 0.252 | 0.234 | 0.156 | 0.124 | 0.125 | 0.349 | 0.391 | 0.229 | 0.146 | 0.0817
8 | NCI-H1915 | 0.917 | 0.966 | 0.952 | 0.152 | 0.0877 | 0.293 | 0.302 | 0.23 | 0.103 | 0.0681 | 0.606 | 0.605 | 0.482 | 0.088 | 0.0931 | 0.358 | 0.372 | 0.308 | 0.106 | 0.0928
9 | NCI-H1944 | 0.863 | 0.915 | 0.896 | 0.251 | 0.178 | 0.452 | 0.368 | 0.379 | 0.24 | 0.155 | 0.406 | 0.403 | 0.321 | 0.184 | 0.164 | 0.187 | 0.194 | 0.127 | 0.12 | 0.114
10 | NCI-H1975 | 0.909 | 0.889 | 0.372 | 0.16 | 0.167 | 0.319 | 0.358 | 0.207 | 0.124 | 0.147 | 0.654 | 0.446 | 0.133 | 0.147 | 0.115 | 0.385 | 0.287 | 0.204 | 0.13 | 0.0987
11 | NCI-H1993 | 0.937 | 0.909 | 0.611 | 0.476 | 0.432 | 0.61 | 0.464 | 0.49 | 0.313 | 0.387 | 0.586 | 0.636 | 0.593 | 0.394 | 0.41 | 0.507 | 0.451 | 0.472 | 0.397 | 0.404
12 | NCI-H2009 | 0.961 | 0.995 | 0.93 | 0.894 | 0.274 | 0.276 | 0.269 | 0.252 | 0.218 | 0.0853 | 0.635 | 0.654 | 0.618 | 0.376 | 0.0937 | 0.499 | 0.43 | 0.481 | 0.412 | 0.128
13 | NCI-H2023 | 0.919 | 0.724 | 0.122 | 0.0716 | 0.0728 | 0.557 | 0.266 | 0.0867 | 0.0826 | 0.0692 | 0.328 | 0.221 | 0.0577 | 0.0589 | 0.0633 | 0.416 | 0.226 | 0.0687 | 0.0792 | 0.0691
14 | NCI-H2085 | 0.994 | 0.95 | 0.99 | 0.919 | 0.76 | 0.608 | 0.607 | 0.604 | 0.594 | 0.314 | 0.845 | 0.859 | 0.763 | 0.521 | 0.29 | 0.688 | 0.734 | 0.68 | 0.595 | 0.406
15 | NCI-H2087 | 0.984 | 0.767 | 0.16 | 0.177 | 0.134 | 0.206 | 0.213 | 0.184 | 0.115 | 0.124 | 0.483 | 0.325 | 0.124 | 0.15 | 0.0762 | 0.394 | 0.232 | 0.138 | 0.125 | 0.105
